Measurements: patent US6107469A, “Minimum recognition unit of a pem mucin tandem repeat specific monoclonal antibody” (Cancer Therapeutics Limited, priority 1991, dated 2000)
“Also recorded” adds a separate entry of the source.

Test system: immobilised mucin receptor peptide (YVTSAPDTRPAPGST, the epitope sequence from the mucin molecule)
Assay: Equilibrium dialysis binding of I125-labelled EPPT peptides to immobilised mucin receptor peptide
Conditions: 24-48 hours at room temperature, FIGS. 2 and 3
Protocol: Preparation of immobilised mucin receptor peptide. 7.5 mg of YVTSAPDTRPAPGST (SEQ ID No 18) (the epitope sequence from the mucin molecule) was dissolved in 100 mM sodium phosphate buffer pH8. This was mixed with 7.5 mg of bovine serum albumin (BSA) and made up to 0.5 ml with buffer. 5 μl of 25% glutaraldehye was added, mixed and left to stand at room temperature for 15 minutes. A further 2.5 μl of glutaraldehyde was then added and the mixture left for a further 15 minutes.
Following the incubation, 100 μl of 1M glycine pH6 was added and left for 10 minutes to quench the glutaraldehyde. The reaction mixture was then aliquoted into 100 μl portions and stored at -20° C. until use.
Radiolabelling of EPPT peptides prior to binding assays. Peptides were dissolved in phosphate buffered saline, 100 mM sodium phosphate pH8, or 5% DMSO in sodium phosphate. […] 1 ml fractions were collected from the eluate and assayed for radioactivity.
Binding of EPPT peptides to immobilised mucin receptor peptide. […] Samples are removed from both sides of the membrane and assayed for the presence of radioactivity. […] Following incubation and equilibration, samples were removed from the dialysis module and counted for the presence of I^125. The radioactivity was then converted to amount of peptide for the purposes of determining the amount bound to the immobilised receptor peptide.

Substance: H-EPPTRTFAY-OH [EPPTRTFAY, NH2-EPPTRTFAY-COOH]
- binding to the mucin receptor peptide: no real binding; also recorded: does not itself appear to bind
